Tests used:
[1] = test system: rabbit serum obtained by immunizing a rabbit with the SARS-CoV strain Frankfurt 1; type: binding; parameters: Binding of a rabbit serum to linear peptides / Binding of a rabbit serum to looped peptides / Rabbit serum linear peptides / Rabbit serum looped peptides / Binding of a rabbit serum to linear peptides of protein N of SARS-CoV Urbani (Rabbit serum linear peptides) / Binding of a rabbit serum to looped/cyclic peptides of protein N of SARS-CoV Urbani (Rabbit serum looped peptides): unit not given here
[2] = test system: antibodies in sera from SARS patients (sera 1a, 1b, 2, 6, 37, 62, London, SARS-yellow, SARS-green); type: binding, human
[3] = test system: control sera (pooled serum of ten healthy LUMC hospital workers; commercial negative donor pooled serum from the Dutch bloodbank); type: binding, human

Sequence	Binding of a rabbit serum to linear peptides [1]	Binding of a rabbit serum to looped peptides [1]	Binding of serum 1a to linear peptides of protein E of SARS-CoV Urbani [2]	Binding of serum 1a to looped/cyclic peptides of protein E of SARS-CoV Urbani [2]	Binding of serum 1b to linear peptides of protein E of SARS-CoV Urbani [2]	Binding of serum 1b to looped/cyclic peptides of protein E of SARS-CoV Urbani [2]	Binding of serum 2 to linear peptides of protein E of SARS-CoV Urbani [2]	Binding of serum 2 to looped/cyclic peptides of protein E of SARS-CoV Urbani [2]	Binding of serum 6 to linear peptides of protein E of SARS-CoV Urbani [2]	Binding of serum 6 to looped/cyclic peptides of protein E of SARS-CoV Urbani [2]	Binding of serum 37 to linear peptides of protein E of SARS-CoV Urbani [2]	Binding of serum 37 to looped/cyclic peptides of protein E of SARS-CoV Urbani [2]	Binding of serum 62 to linear peptides of protein E of SARS-CoV Urbani [2]	Binding of serum 62 to looped/cyclic peptides of protein E of SARS-CoV Urbani [2]	Binding of serum London to linear peptides of protein E of SARS-CoV Urbani [2]	Binding of serum London to looped/cyclic peptides of protein E of SARS-CoV Urbani [2]	Binding of serum SARS-green to linear peptides of protein E of SARS-CoV Urbani [2]	Binding of serum SARS-green to looped/cyclic peptides of protein E of SARS-CoV Urbani [2]	Binding of serum SARS-yellow to linear peptides of protein E of SARS-CoV Urbani [2]	Binding of serum SARS-yellow to looped/cyclic peptides of protein E of SARS-CoV Urbani [2]	also measured
VFLLVTLAILTALRL	0.4	0.3	0.7	0.4	0.4	0.2	0.4	0.4	0.5	0.2	0.6	0.4	0.6	0.5	0.5	0.3	0.4	0.2	0.0	0.5	Binding of Control Serum Blood-Bank to Looped peptides [3]: 0.4; Binding of Control serum Blood-bank to linear peptides [3]: 0.5; Binding of Control serum LUMC to linear peptides [3]: 0.3; Binding of Control serum LUMC to looped peptides [3]: 0.5
LFLAFVVFLLVTLAI	0.5	0.3	0.9	0.5	0.5	0.5	0.9	0.6	0.7	0.5	0.7	0.6	0.7	0.7	0.8	0.5	0.5	0.7	0.2	0.9	Binding of Control Serum Blood-Bank to Looped peptides [3]: 0.6; Binding of Control serum Blood-bank to linear peptides [3]: 0.7; Binding of Control serum LUMC to linear peptides [3]: 0.5; Binding of Control serum LUMC to looped peptides [3]: 0.7

From patent US20070128217A1 (priority 2003, published 2007)
